Assay results from patent publication US9486536B2 (Immunomedics, Inc., priority 2013, dated 2016).

Legend:
[1] = tested on: Trop-2-positive human pancreatic adenocarcinoma cell line (BxPC-3); test: ADCC with PBMCs, effector to target ratio 100:1; assay type: cell-based; details: 33.3 nM
Description: The ADCC activity of various hRS7-ADC conjugates was determined in comparison to hRS7 IgG (FIG. 17). PBMCs were purified from blood purchased from the Blood Center of New Jersey. A Trop-2-positive human pancreatic adenocarcinoma cell line (BxPC-3) was used as the target cell line with an effector to target ratio of 100:1. ADCC mediated by hRS7 IgG was compared to hRS7-Pro-2-PDox, hRS7-CL2A-SN-38, and the reduced and capped hRS7-NEM. All were used at 33.3 nM.

[2] = tested on: triple-negative breast cancer; test: treatment of triple-negative breast cancer patients; assay type: in vivo, human
Description: P2PDox-hRS7 ADC is prepared as described in Examples 1 and 3 above. Patients with triple-negative breast cancer who had failed at least two standard therapies receive 3 cycles of 70 mg P2PDox-hRS7 injected i.v. every 3 weeks. Objective responses are observed at this dose level of P2PDox-hRS7, with an average decrease in tumor volume of 35%, after two cycles of therapy. All serum samples evaluated for human anti-hRS7 antibody (HAHA) are negative.

[3] = tested on: BxPC3 human pancreatic carcinoma xenografts; test: therapy of BxPC3 xenografts in nude mice; assay type: in vivo
[4] = tolerability / toxicity of hRS7-P2PDox in mice
Description: Tumor size was determined by caliper measurements of length (L) and width (W) with tumor volume calculated as (L×W^2)/2. Tumors were measured and mice weighed twice a week. Mice were euthanized if their tumors reached >1 cm^3 in size, lost greater than 15% of their starting body weight, or otherwise became moribund. Statistical analysis for the tumor growth data was based on area under the curve (AUC) and survival time. Profiles of individual tumor growth were obtained through linear curve modeling. An f-test was employed to determine equality of variance between groups prior to statistical analysis of growth curves. A two-tailed t-test was used to assess statistical significance between all the various treatment groups and non-specific controls. For the saline control analysis a one-tailed t-test was used to assess significance. Survival studies were analyzed using Kaplan-Meier plots (log-rank analysis), using the Prism GraphPad Software (v4.03) software package (Advanced Graphics Software, Inc.; Encinitas, Calif.). All doses in preclinical experiments are expressed in antibody amounts. In terms of drug, 100 μg of antibody (5 mg/kg) in a 20-g mouse, for example, carries 1.4 μg-2.8 μg ([…]) of P2PDox equivalent dose when using an ADC with 3-6 drugs/IgG.
Using this dosing regimen, we examined the therapeutic effect of hRS7-P2PDox in 2 human tumor xenograft models, Capan-1 (pancreatic cancer) and NCI-N87 (gastric cancer). Therapy began 7 days after tumor transplantation in nude mice.
Conjugates were prepared and evaluated with mean drug/MAb substitution ratios (MSRs) of ˜6:1 and ˜3:1. Groups of normal mice (n=5) were administered, i.v., single doses of unmodified hRS7 or hRS7-P2PDox with drug substitution of 6.8 or 3.7 (same protein dose), and serum samples were collected at 30 min, 4 h, 24 h, 72 h, and 168 h post-injection. These were analyzed by ELISA for antibody concentration.
Anti-TROP-2 antibody conjugate, hRS7-P2PDox, was evaluated in nude mice bearing NCI-N87 human gastric cancer xenografts by administering a single bolus protein dose of 9 mg/kg, 6.75 mg/kg, 4.5 mg/kg, 2.25 mg/kg, or 1 mg/kg. The therapy was started when the mean tumor volume (mTV) was 0.256 cm^3.

[5] = tested on: gastric (NCI-N87), pancreatic (Capan-1), and breast (MDA-MB-468) human cancer cell lines; test: 4-day MTS assay, potency of the conjugate; assay type: cell-based; details: range over NCI-N87, Capan-1 and MDA-MB-468
Description: Retention of antibody binding was confirmed by cell binding assays comparing binding of the conjugate to unconjugated antibody (Chari, 2008, Acc Chem Res 41:98-107). The potency of the conjugate was tested in a 4-day MTS assay using appropriate target cells.

[6] = tested on: NCI-N87 gastric carcinoma cells; test: cell binding, conjugate vs unconjugated antibody; design: species or system human; details: 6 molecules of P2PDox per antibody (not shown)

Substance: hRS7-P2PDox
- specific lysis (ADCC) [1]: not significantly different
- average decrease in tumor volume ([2]; 70 mg i.v. every 3 weeks, after two cycles of therapy): 35%
- human anti-hRS7 antibody (HAHA) in serum samples ([2]; human, in vivo): negative
- inhibition of growth compared with hRS7-SN-38 ([3]; PxPC-3 pancreatic cancer (not shown)): substantially more effective
- antitumor effects ([3]; second pancreatic cancer xenograft, 2.25 mg/kg protein dose twice weekly×2 weeks): specific and significant antitumor effects
- toxicity of the three dosage schedules ([4]; 45 μg q4dx4, 90 μg weekly×2, single 180 μg (not shown)): similarly low levels of toxicity
- tolerability of 4 doses of 45 μg given in 2 weeks ([4]; 4 doses of 45 μg in 2 weeks): tolerated by all animals
- MTD ([4]; single bolus protein dose, nude mice bearing NCI-N87): 9 mg/kg
- lethal single i.v. dose ([4]; single i.v. dose, antibody amount [~10 μg of P2PDox]): ≥ 300 µg
- IC50 [5]: 0.35 to 1.09 nM
- binding of the antibody moiety vs unconjugated hRS7 [6]: No significant difference in binding
